# Assay results as given in publication PMC8284926 (Journal of the American Chemical Society, 2021).
# Assays:
# DNA polymerase β (Pol β) = DNA polymerase β (Pol β) (Homo sapiens, UniProt P06746); settings: cited from earlier work
# [1] = test system: MEFs lacking Pol β (Pol β −/−); experiment: Cytotoxicity in Pol β null mouse embryonic fibroblasts; format: cell-based; settings: MMS alone
Structure (SMILES),selectivity for Pol β over Pol λ (DNA polymerase β (Pol β)),cytotoxicity relative to wild type MEFs [1]
C=CCc1ccc(O)c(-c2ccc(O)c(CC=C)c2)c1 [honokiol],not selective for Pol β over Pol λ,
"COS(C)(=O)=O [MMS, methylmethanesulfonate]",,considerably more toxic
